Patent publication US20190054038A1, “NITRIC OXIDE GENERATING FORMULATIONS AND KITS” (THE REGENTS OF THE UNIVERSITY OF MICHIGAN, priority 2016, published 2019)
One block for each molecule: values may come before it.

Legend:
[1] = tested on: S. aureus biofilm on CF airway epithelial cells; assay: Killing of S. aureus biofilm on CF airway epithelial cell cultures (bacterial density by plating lysates); assay type: cell-based; conditions: 1.25 mM, 4 hours
Description: Progenitor (basal) airway epithelial cells isolated from cystic fibrosis patients were cultured at air/liquid interface to promote mucociliary differentiation resembling airway epithelium in vivo. These cultures will be referred to herein as CF airway epithleial cells.
Apical surface of the CF airway epithelial cells was washed with PBS, infected apically with 10 μl of S. aureus (1×10^5 CFU/well or at 0.01 multiplication of infection), and incubated for 24 hours. […] The basolateral medium was changed, the apical surface was washed with saline once, and then 30 μl of PBS containing various concentrations of GSNO/Asc (i.e., 0 mM, 0.3 mM, 0.625 mM, 1.25 mM, 2.5 mM, and 5 mM) was added to the apical surface and incubated for 4 hours. The apical surface was washed once with 0.2 ml of 0.15% bicarbonate in PBS. […] Cells were lysed in 1% Triton X-100 and serial dilutions of cell lysates were plated to determine the bacterial density (FIG. 17A).
Apical surface of CF airway epithelial cells was washed with PBS, infected apically with 10 μl of S. aureus (2×10^6 CFU/well), and incubated for 24 hours. The basolateral medium was changed, the apical surface was washed with saline once and treated apically with 30 μl of PBS, or saline containing 1.25 mM GSNO/Asc, or saline containing 50 μg of gentamicin, or saline containing a mixture of 1.25 mM GSNO/Asc and 50 μg of gentamicin. […]

[2] = NO release kinetics of solutions by chemiluminescence (nitric oxide analyzer); assay type: physicochemical
Description: The NO release profile of the two solutions was measured via chemiluminescence detection at 37° C., and the results are shown in FIG. 3. As depicted, both solutions continuously generated NO for more than 7 hours, and the solution containing the higher concentration of GSNO generated higher levels of NO.
As depicted, the inclusion of ascorbate provided an enhanced NO release profile, with all of the NO release within a 2-3 hour window.
The NO release rate of some of the solution formulations was measured by chemiluminescent nitric oxide analyzer (NOA) at room temperature and at 37° C. in an amber NOA cell, while purging with 50 mL/min nitrogen through a glass pipette. The solution formulations were freshly prepared (initial data) (i.e., the dry powder nasal formulation was dissolved in 10 mL of saline solution (NaCl and NaHCO3 in water) immediately before measurements), or were prepared from stored dry power aliquots that were freshly dissolved in 10 mL of saline solution (NaCl and NaHCO3 in water) immediately before measurements. The NO release rate was tested for one or more of the following time periods: 0 (freshly prepared), 1 month, 2 months, 4 months, and 6 months.
The NOA was a Sievers NOA. Studying the release kinetics included analyzing the overall shape of the transient curve, half-life, and total NO released compared to theoretical GSNO content (%). Primarily, the shape of the graph was considered most qualitative, as different machines yield different PPB/mL values due to differing constants. If necessary, the GSNO quantification in each formulation was tested by a copper/cysteine method to release all of the NO from the GSNO very rapidly.

[3] = Stability of dry powder formulations by UV/Vis (GSNO absorbance at 334 nm); assay type: physicochemical
Description: Some of the formulations also included ethylenediamintetraacetic acid (EDTA) and/or saline salts (NaCl and NaHCO3). The constituents were mixed as dry powders and were stored in 4 mL amber vials either in the freezer (−18° C.), at 4° C., at room temperature (RT, from about 20° C. to about 25° C.), or at 37° C. The stability of some of the dry powder formulations was tested via UV/Vis analysis and/or via the Sievers nitric oxide (NO) analyzer (as previously described). For the UV/Vis analysis, at each time interval (0 (freshly prepared), 1 month, 2 months, 4 months, and 6 months), three samples (3-5 mg each) from the dry powder formulations (at each temperature, resulting in 12 vials per formulation) were put into 4 mL amber vials. The respective formulations were then diluted in 4 mL PBS+0.1 mM EDTA (PB SE) solution and mixed for 30 seconds, and 1 mL of the diluted formulation was injected into 3 mL PBSE in a disposable UV/VIS cuvette. The absorbance spectrum was measured typically between 300-600 nm after measuring the PBSE spectrum as blank. GSNO was quantified by absorbance measured at 334 nm. These values were then compared to a calculated value of the percentage of initial or theoretical GSNO content of each formulation.

Structure (SMILES): N[C@@H](CCC(=O)N[C@@H](CS)C(=O)NCC(=O)O)C(=O)O [GSH, reduced L-glutathione]
change in bacterial density [1]: no significant changes in bacterial density

EDTA stability in stored dry powder formulation ([2]; NO release patterns, fresh vs stored several months): stable
Structure (SMILES): O=C(O)CN(CCN(CC(=O)O)CC(=O)O)CC(=O)O [EDTA, ethylenediaminetetraacetic acid]

ascorbic acid stability in stored dry powder formulation ([3]; UV/Vis of GSNO mixed with ascorbic acid, fresh vs stored several months): relatively stable
Structure (SMILES): O=C1O[C@H]([C@@H](O)CO)C(O)=C1O [ascorbic acid, L-ascorbic acid, reference compound]
change in bacterial density [1]: no significant changes in bacterial density

time of continuous NO generation ([2]; 10 μM and 25 μM GSNO in phosphate buffered saline pH 7.4, 37° C., no additive): more than 7 hours | time of peak NO release ([2]; GSNO 1-100 μM in saline, without any additive): 5 to 6 h | % of initial GSNO remaining ([3]; dry powder stored at 37° C., after 6 months): 67% | stability of dry powder over six months (UV/VIS) ([3]; stored at −18° C., 4° C., room temperature, 37° C.): no significant decrease in the stability
Structure (SMILES): N[C@@H](CCC(=O)N[C@@H](CSN=O)C(=O)NCC(=O)O)C(=O)O [GSNO, S-nitrosoglutathione]
amount of NO release versus GSNO concentration ([2]; GSNO 1-100 μM in saline): directly related to the GSNO concentration
